Data on four compounds can be found in ChEMBL document CHEMBL4014293, “Highly oxygenated antiausterity agents from the leaves of Uvaria dac” (2017).

Active and inactive are the calls of the source. The rule behind the calls is not given here.

Experiment [1] deals with PANC-1. The experiment in a line: Antiausteritic activity against human PANC1 cells in nutrient deprived medium assessed as induction of morphological changes at 25 to 50 uM after 24 hrs by ethidium bromide/acridine orange staining based fluorescent/phase contrast microscopic method. Type of experiment: functional, cell-based.
The subject of experiment [2] is MIA PaCa-2. In words: Antiausteritic activity against human MIAPaCa2 cells in nutrient deprived medium after 24 hrs by WST8 assay. Type of experiment: functional. (In general: Tetrazolium assays rely on reduction of a dye to a coloured formazan, in cell work by metabolically active cells.)
Experiment [3] concerns PANC-1. The experiment in a line: Antiausteritic activity against human PANC1 cells in nutrient deprived medium after 24 hrs by WST8 assay. Type of experiment: functional.
The subject of experiment [4] is CAPAN-1. In words: Antiausteritic activity against human Capan1 cells in nutrient deprived medium after 24 hrs by WST8 assay. Type of experiment: functional.
Experiment [5] relates to PSN1. The experiment in a line: Antiausteritic activity against human PSN1 cells in nutrient deprived medium after 24 hrs by WST8 assay. Type of experiment: functional.
Experiment [6] relates to KLM1. In words: Antiausteritic activity human KLM1 cells in nutrient deprived medium after 24 hrs by WST8 assay. Type of experiment: functional.

For `O=C(OCC1=C[C@@H](OC(=O)c2ccccc2)[C@H](O)[C@@H](OC(=O)c2ccccc2)[C@@H]1O)c1ccccc1`, the outcome in experiment [1] was Active. Besides, the Activity result in experiment [2], in experiment [3], in experiment [4], in experiment [5] and in experiment [6] was “Dose-dependent effect” in each case. Further, the PC50 in experiment [2] was 29.1 µM; in experiment [3], 20.1 µM; in experiment [4], 73 µM; in experiment [5], 9.7 µM.
Turning to `O=C(OCC1=C[C@@H](OC(=O)c2ccccc2)[C@H](OC(=O)c2ccccc2)[C@@H](O)[C@@H]1O)c1ccccc1`, the Activity result in experiment [2], in experiment [3], in experiment [4], in experiment [5] and in experiment [6] was “Dose-dependent effect” each time.
For the compound `CCCCCCCCCCCCCCCCCC(=O)O[C@@H]1C=C(COC(=O)c2ccccc2)[C@@H](O)[C@H](OC(=O)c2ccccc2)[C@H]1O`, the Activity entry in experiment [2], in experiment [3], in experiment [4], in experiment [5] and in experiment [6] was “Dose-dependent effect” throughout.
For `CCCCCCCCCCCCCCCCCC(=O)O[C@@H]1C=C(COC(=O)c2ccccc2)[C@@H](O)[C@H](O)[C@H]1OC(=O)c1ccccc1`, the Activity result in experiment [2], in experiment [3], in experiment [4], in experiment [5] and in experiment [6] was “Dose-dependent effect” throughout.
